Article PMC6646235, “Structure and ligand binding of As-p18, an extracellular fatty acid binding protein from the eggs of a parasitic nematode” (Bioscience Reports, 2019)

Experiments:
As-p18 [1] = target: T1, As-p18 (Ascaris suum, UniProt P55776); assay: isothermal titration calorimetry; complex also solved by solution NMR; format: binding
T1 construct: mature protein without secretion signal peptide, N-terminal His-tag (pQE-30/As-p18), expressed in E. coli BL21 (DE3); monomer; delipidated by RP-HPLC for NMR, co-purified lipid retained for crystal
T1 sequence (P55776 21-163): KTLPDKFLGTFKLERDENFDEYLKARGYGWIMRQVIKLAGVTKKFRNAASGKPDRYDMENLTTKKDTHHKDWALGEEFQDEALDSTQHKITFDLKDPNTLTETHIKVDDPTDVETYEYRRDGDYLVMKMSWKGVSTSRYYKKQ

As-p18 [2] = target: T1, As-p18; assay: X-ray crystallography at […] Å; GC-MS of co-purified lipid; format: binding; conditions: co-purified from E. coli; pH 4.5 crystal; ligand density incomplete, vaccenate modelled

SMILES: CCCCCCCC/C=C\CCCCCCCC(=O)O [oleic acid]
- Kd (As-p18 [1]): 3.1 µM

SMILES: CCCCCC/C=C\CCCCCCCCCC(=O)O [vaccenate, cis-11-octadecenoate]
- X-ray crystallography at 2.3 Å; GC-MS of co-purified lipid (As-p18 [2]): The two X-ray structures of As-p18 in complex with vaccenate
